Experiments:
[1] = Cell-killing effect (necrosis) of analogous compounds; assay type: cell-based; conditions: even when added at a low concentration
[2] = test system: primary cultured fibroblasts (normal cells); assay: Activity to induce cell death specific to cancer cells: normal cells (CTB survival rate); assay type: cell-based; conditions: 20 μM, FIGS. 7 and 8
Procedure: CTB measurement values were obtained in the same manner as in the above-described <Evaluation of In Vitro Anticancer Activity> by adding each of compounds #09 and #13 at a final concentration of 20 μM to culture liquids of primary cultured fibroblasts (normal cells) and fibroblasts (cancer cells) immortalized with SV40. On the basis of the obtained CTB measurement values, the cell survival rate was calculated over time. Note that the cell survival rate was defined as 1-cell death induction rate. FIGS. 7 and 8 show the obtained results.

[3] = test system: fibroblasts (cancer cells) immortalized with SV40; assay: Activity to induce cell death specific to cancer cells: cancer cells (CTB survival rate); assay type: cell-based; conditions: 20 μM, FIGS. 7 and 8
[4] = test system: p53-deficient cancer cells (53T); assay: Alternative autophagy-inducing activity in tumor cell line (Lamp2 aggregation, fluorescence and electron microscope); assay type: cell-based, mouse; conditions: 20 μM, six hours, FIGS. 3 to 6
Procedure: In the same manner as in the above-described <Evaluation of Alternative Autophagy-Inducing Activity> using the Lamp1-GFP/ATG5-KO MEFs, each of the compounds #09 and #13 was added at a final concentration of 20 μM to a culture liquid of the tumor cell line (also referred to as “53T”) established from the tumor developed spontaneously in the p53 deficient C57/B6J mouse. […] Note that, in this evaluation, Lamp2 was used instead of Lamp1. FIGS. 3 to 6 show the obtained results.

[5] = test system: tumor cell line 53T implanted in wild-type C57/B6J mice; assay: In vivo anticancer activity, tumor volume in cancer-bearing mice implanted with 53T; design: species or system mouse; conditions: for anticancer activity (FIG. 17, tumor volumes in cancer-bearing mice): Example 9
Procedure: A tumor cell line (also referred to as “53T”) established from a tumor developed spontaneously in a p53 deficient C57/B6J mouse was implanted at 4 sites in the ventral skin of each of wild-type C57/B6J mice at 3×10^5 cells per site. From the following day, the compounds were administered to the mice every other day five times in total. The concentration of each compound was 0.4 μmol/(50 μl DMSO+100 μl PBS)/mouse/administration. In addition, a negative control group to which only the same amount of DMSO was administered was prepared. Then, 21 days (3 weeks) after the implantation, the tumor diameters of the mice were measured, and the tumor volumes were calculated, and compared with that of the control group.
The 53T was implanted at 4 sites in the ventral skin of each of wild-type C57/B6J mice at 3×10^5 cells per site. From the following day, 0 (DMSO alone), 5, 10, or 20 μM of each of compounds #09 and #13 was administered to six mice every other day five times in total. Then, 21 days (3 weeks) after the implantation, the tumor diameters of the mice were measured, and the tumor volumes were calculated. FIGS. 9 and 11 show the obtained results. Note that, in FIGS. 9 and 11, each point indicates the average volume of the tumors at the four sites in a mouse.
In addition, in the same manner as described above, the 53T was implanted in mice, and, from the following day, each of compound #09 at a concentration of 10 μM and compound #13 at a concentration of 5 μM was administered to four cancer-bearing mice every other day five times in total. Then, 21 days (3 weeks) after the implantation, the tumor diameters of the mice were measured, and the tumor volumes were calculated. In addition, a negative control to which DMSO was administered was also prepared, and the tumor volume was calculated in the same manner. In addition, these experiments were conducted three times independently of each other. FIGS. 10 and 12 show the obtained results. Note that in FIGS. 10 and 12, each point indicates the average volume of the tumors at the four sites in a mouse.

[6] = test system: mouse tumor cell line 53T; assay: Evaluation of in vitro anticancer activity (Cell titer blue, cell death induction rate); assay type: cell-based; design: key: (CTB of negative control − CTB treated)/CTB of negative control; conditions: 24 hours, CTB
Procedure: First, the mouse tumor cell line 53T was seeded at 2×10^4/well on 96 well plates. Then, on the following day, each of compounds #09 and #13 dissolved in DMSO was added at a final concentration of 1, 5, 10, 20, or 50 μM. In addition, a negative control to which only DMSO was added was prepared. Subsequently, the cells were cultured at 37° C. under 10% CO2 for 24 hours. Then, by using Cell titer blue (CTB) (manufactured by Promega) according to the attached protocol, the amount of the fluorescence of each well of the cells 10 minutes after the addition of the CTB reagent was measured as a CTB measurement value of the cells brought into contact with compound #09 or #13. On the basis of such measurement values, the cell death induction rate of each of compounds #09 and #13 was calculated according to the following formula. Cell death induction rate=(CTB measurement value of negative control−CTB measurement value of cells to which compound was added)/CTB measurement value of negative control

[7] = test system: 53T implanted in wild-type C57/B6J mice; assay: Survival rate of cancer-bearing mice; assay type: in vivo, mouse; conditions: 10 μM every other day 5 times; compared with etoposide at 10 μM, FIGS. 13 to 15
Lamp1-GFP/ATG5-KO MEFs = assay: Evaluation of activity to induce alternative autophagy (fluorescent bright spots due to aggregation of Lamp1-GFP); assay type: cell-based, mouse; conditions: for ability to induce alternative autophagy, comparative statement: as shown in Examples; for alternative autophagy-inducing activity (FIG. 16): Example 9, same method as Example 1
Procedure: First, by using a retrovirus, a gene for expression of a Lamp1-GFP fusion protein (also referred to as “Lamp1-GFP”) was introduced into ATG5-deficient mouse embryonic fibroblasts (also referred to as “ATG5-KO MEFs”). Then, a cell with high expression of Lamp1-GFP was cloned and prepared as Lamp1-GFP/ATG5-KO MEFs.
The ATG5-KO MEFs were prepared by introducing a gene for expression of SV40T antigen into MEFs established from an ATG5-deficient C57/B6J mouse at a fetal age of 14.5 days by an electroporation method using an Nucleofector system (manufactured by amaxa) for immortalization. In addition, the retrovirus was prepared by introducing an MSCV-Lamp1-GFP (zeocin resistant) vector into plat E cells, which were retrovirus packaging cells.
To the Lamp1-GFP/ATG5-KO MEFs seeded at 1×10^4/96 wells on the preceding day, each of the test compounds was added at a final concentration of 50 μM, and the Lamp1-GFP/ATG5-KO MEFs were cultured at 37° C. under 10% CO2 for 5 hours.
Then, for observation, Hoechst 33342 (manufactured by invitrogen) was added at a final concentration of 1 ng/ml to each culture liquid, followed by incubation for 5 minutes. Then, the culture liquid was replaced with 100 μl of HBSS. Subsequently, five visual fields per well were photographed at random with IN CELL ANALYZER 1000 (manufactured by GE Healthcare).
Then, the thus obtained novel benzothiophene compounds (TMD-459 and TMD-460) were evaluated for the ability to induce alternative autophagy by the same method as that described in Example 1. Note that, in Example 10, each of the compounds was added to culture liquids at final concentrations of 10, 20, 30, 40, and 50 μM. In addition, compound #9 was also added as a reference example to culture liquids at the above-described concentrations. Then, 5 hours after the addition of each of these compounds, five visual fields per each well were photographed at random with IN CELL ANALYZER 1000, and the presence or absence of fluorescent bright spots due to the aggregation of Lamp1-GFP was visually determined.

Structure (SMILES) | ability to induce alternative autophagy, comparative statement (Lamp1-GFP/ATG5-KO MEFs) | alternative autophagy-inducing activity (FIG. 16) (Lamp1-GFP/ATG5-KO MEFs) | anticancer activity (FIG. 17, tumor volumes in cancer-bearing mice) [5] | also measured
C=CC/N=C/c1cc(C)c2c(C(=O)OCC)c(NC(C)=O)sc2c1Cl [compound 47] |  |  |  | cell-killing effect (necrosis) [1]: strong cell-killing effect (necrosis)
CCOC(=O)c1c(NC(C)=O)sc2c(OCC(O)CNC3CCCCC3)c(Br)ccc12 (centres unmarked) [compound 36] |  |  |  | cell-killing effect (necrosis) [1]: strong cell-killing effect (necrosis)
N=C(Nc1ccc2c(c1)OCCO2)Nc1nc(-c2cccs2)cc(C(F)(F)F)n1 [compound 13] |  |  |  | cell death of normal cells (cell survival rate over time) [2]: hardly induced cell death of the normal cells; cell death-inducing activity on cancer cells (cell survival rate over time) [3]: exhibited remarkable cell death-inducing activity on the cancer cells; aggregation of Lamp2 and occurrence of autophagy [4]: aggregation of the lysosomal protein Lamp2 and occurrence of autophagy were observed; in vivo anticancer activity (tumor volume vs control group, FIG. 2) ([5]; 0.4 μmol/mouse/administration, every other day five times, 21 days after implantation): selected as compounds having in vivo anticancer activity; in vivo anticancer activity (tumor volume, FIGS. 9 to 12) ([5]; 5, 10, or 20 μM every other day five times, 21 days after implantation): exhibited in vivo anticancer activity; in vivo anticancer activity at low concentration (FIG. 11) ([5]; administered at 5 μM): exhibited remarkable anticancer activity; Cell death induction rate ([6]; 1 μM): 0; Cell death induction rate ([6]; 5 μM): 0.1776; Cell death induction rate ([6]; 10 μM): 0.4559; Cell death induction rate ([6]; 20 μM): 0.768; Cell death induction rate ([6]; 50 μM): 0.9426; improvement effect on the survival rate of the cancer-bearing mice [7]: higher improvement effect on the survival rate of the cancer-bearing mice than etoposide
CCOC(=O)c1c(NC(C)=O)sc2c(OCCN(CC)CC)c(-c3ccc(OC)cc3)ccc12 [formula (1-10)] | ability to induce alternative autophagy is higher |  |  | 
CCOC(=O)c1c(NC(C)=O)sc2c(OCCN(CC)CC)c(-c3ccsc3)ccc12 [formula (1-18)] | ability to induce alternative autophagy is higher |  |  | 
CCOC(=O)c1c(NC(=O)c2ccccc2)sc2c(O)c(Br)cc(Br)c12 [compound 42] |  | no alternative autophagy-inducing activity | did not have anticancer activity | 
CCOC(=O)c1c(NC(C)=O)sc2c(OCCN(CC)CC)c(-c3cccs3)ccc12 [formula (1-17)] | ability to induce alternative autophagy is higher |  |  | 
CCOC(=O)c1c(NC(C)=O)sc2c(OCCN(CC)CC)c(-c3ccccc3SC)ccc12 [formula (1-14)] | ability to induce alternative autophagy is higher |  |  | 
CCCC(=O)c1c(NC(C)=O)sc2c(Cl)c(/C=N\CCCCO)ccc12 [compound 46] |  | no alternative autophagy-inducing activity | did not have anticancer activity | 
CCOC(=O)c1c(NC(C)=O)sc2c(OCCN(CC)CC)c(-c3ccccc3)ccc12 [TMD-459, Ethyl 2-Acetylamino-7-[2-(N,N-diethylamino)ethyloxy]-6-phenylbenzo[b]thiophene-3-carboxylate] |  |  |  | aggregation of Lamp1-GFP, visually determined (Lamp1-GFP/ATG5-KO MEFs; concentrations of 10 μM or higher (10 to 50 μM), 5 hours): aggregation of the Lamp1-GFP was observed in all the cells
CCOC(=O)c1c(NC(C)=O)sc2c(NC(C)=O)cccc12 [compound 38] |  | no alternative autophagy-inducing activity | did not have anticancer activity | 
CCOC(=O)c1c(NC(C)=O)sc2c(OCCN(CC)CC)c(-c3ccc(O)cc3)ccc12 [formula (1-15)] | ability to induce alternative autophagy is higher |  |  | 
CCOC(=O)c1c(NC(C)=O)sc2c(OC(C)=O)cccc12 [compound 37] |  | no alternative autophagy-inducing activity | did not have anticancer activity | 
CCOC(=O)c1c(NC(C)=O)sc2c(Cl)c(/C=N/c3ccccc3)cc(Br)c12 [compound 44] |  | no alternative autophagy-inducing activity | did not have anticancer activity | 
COc1c(Br)ccc2c(C(=O)O)c(NC(C)=O)sc12 [compound 40] |  | no alternative autophagy-inducing activity | did not have anticancer activity | 

Source: patent publication US10954222B2, “Benzothiophene compound, alternative autophagy-inducing agent and anticancer agent including the compound as active ingredient, and method for screening for compound having anticancer activity” (National University Corporation Tokyo Medical and Dental …, priority 2012, dated 2021)
